Source: PubChem BioAssay (NCI)
Several values for one entry are separate records, joined by “and”; a condition that tells them apart may be missing. Equal values may be shown once.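 Five compound concentrations were applied to cells in 96-well plates for 48 hours; endpoints were derived by simple linear interpolation of the resulting dose-response curve. GI50 marks 50% less growth. TGI: concentration producing complete growth inhibition.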

Legend:
Assay in all cases: growth of human tumour cells (NCI), 48 h
[1] = test system: ACHN renal
[2] = test system: EKVX NSCLC
[3] = test system: M14 melanoma
[4] = test system: OVCAR-3 ovarian
[5] = test system: RPMI-8226 leukemia
[6] = test system: RXF 393 renal
[7] = test system: SF-539 CNS
[8] = test system: SK-MEL-28 melanoma
[9] = test system: SK-MEL-5 melanoma
[10] = test system: SNB-19 CNS

SMILES | GI50 [1] | TGI [1] | GI50 [2] [µM] | TGI [2] [µM] | GI50 [3] | TGI [3] | GI50 [4] | TGI [4] | GI50 [5] | TGI [5] | GI50 [6] | TGI [6] | GI50 [7] | TGI [7] | GI50 [8] | TGI [8] | GI50 [9] | TGI [9] | GI50 [10] | TGI [10]
CC(=O)N1c2ccccc2NC2=C(C(=O)N(Cc3ccccc3)C2(C)C)C1c1ccco1 (stereo unspecified) | 1.35 µM | > 25 µM | 1.73 | > 25 | 0.748 µM | 5.31 µM | 0.208 µM | 1.42 µM | 0.758 µM | > 25 µM | 0.599 µM | 1.87 µM | 0.395 µM | 1.17 µM | > 25 µM | > 25 µM | 0.871 µM | > 25 µM | 0.524 µM | > 25 µM
Cc1nc(CN2CCCCC2)c(O)c(=O)[nH]1 |  | > 100 µM |  | > 100 |  | > 100 µM |  | > 100 µM |  | > 100 µM |  | > 100 µM |  | > 100 µM |  | > 100 µM |  | > 100 µM |  | > 100 µM
Cc1ccc(NC(=O)C(=O)CC(=O)C2CCOC2=O)c(C)c1 (stereo unspecified) |  | > 100 µM |  | > 100 |  | > 100 µM |  | > 100 µM |  | > 100 µM |  | > 100 µM |  | > 100 µM |  | > 100 µM |  | > 100 µM |  | > 100 µM
CCn1cc(-c2ccnc3[nH]ccc23)c(-c2cccc(NC(=O)Nc3ccc(OCc4ccccc4)cc3)c2)n1 | 15.2 µM | > 25 µM | 21.8 | > 25 | 14.4 µM | > 25 µM | 6.24 µM | 19.6 µM | 4.19 µM | > 25 µM | 1.28 µM | 7.88 µM | 12.9 µM | > 25 µM | 18.1 µM | > 25 µM | 13.5 µM | > 25 µM | > 23.9 µM | > 25 µM
CN(CCc1ccccn1)c1nc(=[N+](C)C)ss1 |  | > 100 µM |  | > 100 |  | > 100 µM |  | > 100 µM |  | > 100 µM |  | > 100 µM |  | > 100 µM |  | > 100 µM |  | > 100 µM |  | > 100 µM
O=C(O)c1cc2ccccc2oc1=O |  | > 100 µM |  | > 100 |  | > 100 µM |  | > 100 µM |  | > 100 µM |  | > 100 µM |  | > 100 µM |  | > 100 µM |  | > 100 µM |  | > 100 µM
C[C@@H]1Cc2c([nH]c3ccccc23)[C@@H](c2c(F)cc(NC3CN(CCCF)C3)cc2F)N1CC(F)(F)CO | 4.8 µM | 17.1 µM | 5.41 | 19.3 | 1.87 µM | 3.84 µM | 11.3 µM | 26.3 µM | 2.82 µM | 14.1 µM | 4.38 µM | 17 µM | 4.36 µM | 15.7 µM | 2.45 µM | 6.49 µM | 1.92 µM | 3.68 µM | 10.3 µM | 23.6 µM
CCCCCCCCCc1cc[n+](CC(=O)c2ccc([N+](=O)[O-])cc2)cc1 | 1.42 µM | 2.82 µM | 0.914 | 2.55 | 0.553 µM | 2.14 µM | 1.04 µM | 2.28 µM | 0.439 µM | 2.15 µM | 0.754 µM | 2.15 µM | 1.65 µM | 3.1 µM | 1.11 µM | 2.39 µM | 0.42 µM | 1.54 µM | 0.478 µM | 1.8 µM
O=C(Cc1nc2ccccc2s1)C(=O)Nc1cccc(Cl)c1 |  | > 100 µM |  | > 100 |  | > 100 µM |  | > 100 µM |  | > 100 µM |  | > 100 µM |  | > 100 µM |  | > 100 µM |  | > 100 µM |  | > 100 µM
O=S(=O)(SCc1ccccc1)C(c1ccccc1)c1ccccc1 |  | > 100 µM |  | > 100 |  | 59.7 µM |  | > 100 µM |  | 85.6 µM |  | 68 µM |  | 43.1 µM |  | > 100 µM |  | 51.8 µM |  | > 100 µM
CN(/N=C/c1cccc2cccnc12)c1ccc([N+](=O)[O-])cc1 |  | > 100 µM |  | > 100 |  | > 100 µM |  | > 100 µM |  | > 100 µM |  | > 100 µM |  | > 100 µM |  | > 100 µM |  | > 100 µM |  | > 100 µM
COc1cc(Nc2ncc(F)c(Nc3ccc4c(n3)NC(=O)C(C)(C)O4)n2)cc(OC)c1OC | 0.791 µM and 1.36 µM | > 100 µM | 4.3 | > 10 | > 100 µM | > 100 µM | > 100 µM | > 100 µM | > 100 µM | > 100 µM | 0.418 µM | 5.89 µM | 0.916 µM | 9.38 µM | > 100 µM | > 100 µM | > 100 µM | > 100 µM | > 100 µM | > 100 µM
COc1ccc(C[C@@H]2NC[C@@H](O)[C@@H]2OC(C)=O)cc1 | 9.5 µM |  | 1.55 |  | 11.8 µM |  | 5.34 µM |  | 1.79 µM |  |  | 0.0674 µM | 9.48 µM | > 100 µM |  | 0.127 µM | 0.456 µM |  | 3.73 µM | 
Cc1ccc(C2NC(=O)c3ccccc3N2)s1 (stereo unspecified) |  | > 100 µM |  | > 100 |  | > 100 µM |  | 50.2 µM |  | > 100 µM |  | > 100 µM |  | 14.4 µM |  | > 100 µM |  | > 100 µM |  | > 100 µM
O=C(O)CCC/C=C\C[C@H]1C=CC(=O)/C1=C/C[C@@H](O)CCc1cccc(C(F)(F)F)c1 | 1.65 µM | 3.22 µM | 3.73 | 14.3 | 2 µM | 6.76 µM | 1.99 µM | 5.61 µM | 1.91 µM | 12.2 µM | 2 µM | 3.61 µM | 2.46 µM | 6.57 µM | 1.52 µM | 4.4 µM | 1.71 µM | 3.14 µM | 2.01 µM | 4.8 µM
O=[N+]([O-])/C=C/c1cc2ccccc2[nH]1 |  | 31.1 µM |  | 78 |  | 28.5 µM |  | 28.2 µM |  | 9.85 µM |  | 26.6 µM |  | 25.5 µM |  | 44 µM |  | 28.2 µM |  | 34.7 µM
Nc1ncnc2c1c(-c1cccc(OCc3ccccc3)c1)cn2C1CC(CN2CCC2)C1 (stereo unspecified) | 3.87 µM and 7.43 µM | 15.3 µM and > 10 µM | 7.88 | > 10 | 1.59 µM and 1.65 µM | 3.28 µM and 3.55 µM | 6.26 µM and 7.96 µM | 19.3 µM and > 10 µM | 1.9 µM and 2.18 µM | 5.41 µM and 5.31 µM | 1.71 µM and 2 µM | 4.27 µM and 7.26 µM | 1.65 µM and 1.95 µM | 3.18 µM and 5.16 µM | 1.33 µM and 1.63 µM | 2.78 µM and 3.52 µM | 1.31 µM and 1.42 µM | 2.67 µM and 2.8 µM | 6.37 µM and 7.05 µM | 20.5 µM and > 10 µM
